Results from ChEMBL document CHEMBL1138134, “Phthalazinones 2: Optimisation and synthesis of novel potent inhibitors of poly(ADP-ribose)polymerase” (Bioorg Med Chem Lett, 2006).
In brackets after ≈: the same amount, converted by molar mass.

Key:
[1] = molecular target: T1, Poly [ADP-ribose] polymerase 1 (Homo sapiens, UniProt P09874); assay: Inhibitory activity against PARP1
[2] = molecular target: T1, Poly [ADP-ribose] polymerase 1; settings: HeLa
Description: Ratio of inhibition of HeLa cell proliferation by MMS alone against MMS with PARP inhibitors

[3] = Half life in rat at 10 mg/kg, iv; assay type: ADME, organism-based; parameters: dose 10 mg/kg, route intravenous; settings: in vivo
[4] = Clearance in rat at 10 mg/kg, iv; assay type: ADME, organism-based; parameters: dose 10 mg/kg, route intravenous; settings: in vivo
[5] = Volume of distribution in rat at 10 mg/kg, iv; assay type: ADME, organism-based; parameters: dose 10 mg/kg, route intravenous; settings: in vivo, read-out: Vdss
[6] = Aqueous solubility at pH 7.4; assay type: physicochemical
CAPAN-1 = assay: Activity against BRCA2-deficient cells; assay type: functional, Homo sapiens
RKO = assay: Activity against wild type cells; assay type: functional, Homo sapiens
Mus musculus = species: Mus musculus; assay: Intrinsic clearance in mouse hepatic microsomes; assay type: ADME, Liver, Microsome

T1 sequence (P09874 whole entry): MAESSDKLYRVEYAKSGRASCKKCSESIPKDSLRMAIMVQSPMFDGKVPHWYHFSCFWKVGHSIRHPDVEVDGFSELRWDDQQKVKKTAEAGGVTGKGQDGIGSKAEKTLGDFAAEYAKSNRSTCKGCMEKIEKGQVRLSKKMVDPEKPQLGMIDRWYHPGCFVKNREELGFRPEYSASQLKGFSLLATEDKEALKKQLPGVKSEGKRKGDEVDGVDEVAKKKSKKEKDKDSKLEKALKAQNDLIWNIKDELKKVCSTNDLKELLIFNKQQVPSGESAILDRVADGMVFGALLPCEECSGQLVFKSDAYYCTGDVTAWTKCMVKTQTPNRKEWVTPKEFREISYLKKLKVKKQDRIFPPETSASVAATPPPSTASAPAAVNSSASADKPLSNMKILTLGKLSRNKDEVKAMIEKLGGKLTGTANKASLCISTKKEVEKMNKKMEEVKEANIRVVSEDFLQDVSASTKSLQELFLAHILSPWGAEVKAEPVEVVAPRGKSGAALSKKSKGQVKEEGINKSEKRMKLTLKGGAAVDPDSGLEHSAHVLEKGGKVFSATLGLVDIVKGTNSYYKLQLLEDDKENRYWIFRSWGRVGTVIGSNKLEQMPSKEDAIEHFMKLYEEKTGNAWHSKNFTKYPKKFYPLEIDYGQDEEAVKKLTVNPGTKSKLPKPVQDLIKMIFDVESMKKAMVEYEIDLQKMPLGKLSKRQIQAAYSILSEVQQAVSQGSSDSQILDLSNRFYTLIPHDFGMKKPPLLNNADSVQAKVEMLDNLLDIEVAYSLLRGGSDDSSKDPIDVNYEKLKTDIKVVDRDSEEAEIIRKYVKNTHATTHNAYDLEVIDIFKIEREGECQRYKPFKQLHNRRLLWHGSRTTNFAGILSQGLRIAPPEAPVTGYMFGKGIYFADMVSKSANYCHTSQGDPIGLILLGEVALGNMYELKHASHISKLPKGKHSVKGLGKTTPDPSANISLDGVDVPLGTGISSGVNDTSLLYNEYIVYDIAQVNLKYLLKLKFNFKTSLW

IC50 [1] [nM]	PF50 [2]	Structure (SMILES)	other results
15	–	CCOC(=O)C1CCN(C(=O)c2cccc(Cc3n[nH]c(=O)c4ccccc34)c2)CC1	–
–	2.5	COc1cc(C(=O)N2CCCN(C(=O)c3cccc(Cc4nnc(O)c5ccccc45)c3)CC2)cc(Cl)n1	–
–	2.1	Cc1noc(C)c1S(=O)(=O)N1CCCN(C(=O)c2cccc(Cc3nnc(O)c4ccccc34)c2)CC1	–
–	3.1	O=C(c1cccc(Cc2nnc(O)c3ccccc23)c1)N1CCCN(CC2CC2)CC1	–
–	3.7	O=C(c1cccc(Cc2n[nH]c(=O)c3ccccc23)c1)N1CCNCC1	–
15	2.6	CCN1CCCN(C(=O)c2cccc(Cc3nnc(O)c4ccccc34)c2)CC1	–
–	2.2	COc1ccc(NC(=O)N2CCCN(C(=O)c3cccc(Cc4nnc(O)c5ccccc45)c3)CC2)cc1	–
16	–	COc1cc2c(cc1OC)CN(C(=O)C1CCN(C(=O)c3cccc(Cc4n[nH]c(=O)c5ccccc45)c3)CC1)CC2	–
–	2.5	CCCN1CCCN(C(=O)c2cccc(Cc3nnc(O)c4ccccc34)c2)CC1	–
–	4.1	COc1cc2c(cc1OC)CN(C(=O)C1CCN(C(=O)c3cccc(Cc4nnc(O)c5ccccc45)c3)CC1)CC2	–
16	2	CC(C)CNC(=O)C1CCN(C(=O)c2cccc(Cc3nnc(O)c4ccccc34)c2)CC1	–
–	2.1	O=C(c1cccc(Cc2nnc(O)c3ccccc23)c1)N1CCCN(S(=O)(=O)c2cccc(C(F)(F)F)c2)CC1	–
7	12.6	O=C(c1cc(Cc2n[nH]c(=O)c3ccccc23)ccc1F)N1CCCNCC1	half-life [3]: 1 h; clearance [4]: 54 mL/min/kg; Vd [5]: 2.1 L/kg; solubility [6]: 5100 µg/mL (≈ 13.4 mM); SF50 (CAPAN-1): 15 nM; SF50 (RKO): 2 µM
–	4.4	CC1CCN(C(=O)C2CCN(C(=O)c3cccc(Cc4nnc(O)c5ccccc45)c3)CC2)CC1	–
–	6.7	CCN1CCCN(C(=O)c2cc(Cc3nnc(O)c4ccccc34)ccc2F)CC1	–
10	–	CCCN1CCCN(C(=O)c2cccc(Cc3n[nH]c(=O)c4ccccc34)c2)CC1	–
9	2.1	CN(Cc1ccccc1)C(=O)C1CCN(C(=O)c2cccc(Cc3nnc(O)c4ccccc34)c2)CC1	–
–	6.3	O=C(c1cc(Cc2nnc(O)c3ccccc23)ccc1F)N1CCCN(C2CCCCC2)CC1	–
6	6.6	O=C(c1cccc(Cc2nnc(O)c3ccccc23)c1)N1CCCN(C2CCCCC2)CC1	–

IC50 [1] [nM]	PF50 [2]	Structure (SMILES)	other results
–	1.2	O=C(c1cccc(Cc2nnc(O)c3ccccc23)c1)N1CCOCC1	–
23	1.8	CN1CCCN(C(=O)c2cccc(Cc3nnc(O)c4ccccc34)c2)CC1	–
–	2.3	CCC(=O)Nc1cccc(Cc2n[nH]c(=O)c3ccccc23)c1	CL (Mus musculus): 12 mL/min/g
15	2.5	O=C(NC1CCCC1)C1CCN(C(=O)c2cccc(Cc3nnc(O)c4ccccc34)c2)CC1	–
9	5.5	CN1CCCN(C(=O)c2cc(Cc3nnc(O)c4ccccc34)ccc2F)CC1	–
–	3.2	O=C(c1cccc(Cc2nnc(O)c3ccccc23)c1)N1CCCN(S(=O)(=O)c2ccc(-c3ccccc3)cc2)CC1	–
–	6.7	O=C(c1cc(Cc2nnc(O)c3ccccc23)ccc1F)N1CCCN(CC2CC2)CC1	–
–	2.1	CCNC(=O)c1cccc(Cc2n[nH]c(=O)c3ccccc23)c1	CL (Mus musculus): < 1 mL/min/g
12	–	Cc1noc(C)c1S(=O)(=O)N1CCCN(C(=O)c2cccc(Cc3n[nH]c(=O)c4ccccc34)c2)CC1	–
–	2.1	CCOC(=O)C1CCN(C(=O)c2cccc(Cc3nnc(O)c4ccccc34)c2)CC1	–
14	–	O=C(c1cccc(Cc2n[nH]c(=O)c3ccccc23)c1)N1CCCN(CC2CC2)CC1	–
9	–	O=C(c1cccc(Cc2n[nH]c(=O)c3ccccc23)c1)N1CCCNCC1	–
15	3.9	O=C(c1cccc(Cc2nnc(O)c3ccccc23)c1)N1CCC(C(=O)N2CCCCC2)CC1	–
9	–	COc1cc(C(=O)N2CCCN(C(=O)c3cccc(Cc4n[nH]c(=O)c5ccccc45)c3)CC2)cc(Cl)n1	–
–	2.4	O=C(c1cccc(Cc2nnc(O)c3ccccc23)c1)N1CCCNCC1	–
–	2.6	CCC(C)CN(C)C(=O)C1CCN(C(=O)c2cccc(Cc3nnc(O)c4ccccc34)c2)CC1 (stereo unspecified)	–
46	2.2	CN(C)CCN(C)C(=O)c1cccc(Cc2nnc(O)c3ccccc23)c1	–
5	7	CCCN1CCCN(C(=O)c2cc(Cc3nnc(O)c4ccccc34)ccc2F)CC1	–

Structure (SMILES)	IC50 [1] [nM]	PF50 [2]	other results
CCC(C)CN(C)C(=O)C1CCN(C(=O)c2cccc(Cc3n[nH]c(=O)c4ccccc34)c2)CC1 (stereo unspecified)	9	–	–
COc1cccc(CCC(=O)N2CCCN(C(=O)c3cccc(Cc4nnc(O)c5ccccc45)c3)CC2)c1	8	2.5	–
O=C(NCCc1cccs1)C1CCN(C(=O)c2cccc(Cc3nnc(O)c4ccccc34)c2)CC1	8	2.8	–
O=C(c1cccc(Cc2nnc(O)c3ccccc23)c1)N1CCc2ccccc2C1	8	3.4	–
O=C(c1cc(Cc2n[nH]c(=O)c3ccccc23)ccc1F)N1CCCN(CC2CC2)CC1	5	–	–
O=C(c1cccc(Cc2n[nH]c(=O)c3ccccc23)c1)N1CCOCC1	40	–	–
CC1CCN(C(=O)C2CCN(C(=O)c3cccc(Cc4n[nH]c(=O)c5ccccc45)c3)CC2)CC1	8	–	–
